Laboratory results: US10144706B2 (BRISTOL-MYERS SQUIBB COMPANY, priority 2016, dated 2018)
pIC50: −log10 of the molar value. Read-outs that look alike come from different tables or passages of the source.

Biological target: T1, PD-1/PD-L1 interaction (PD-1-Ig / PD-L1-His) (Homo sapiens, UniProt Q9NZQ7)
T1 construct: hPDL1(18-239)-TVMV-His; TVMV protease site linker (C); made in house; host or cells: HEK293T
Test: PD-1/PD-L1 Homogenous Time-Resolved Fluorescence (HTRF) binding assay
Conditions: PD-L1-His 10 nM, PD-1-Ig 20 nM, read-out: Range or IC50
Method in brief: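 Human PD-L1-His (10 nM final) was pre-incubated with inhibitor for 15 min, then PD-1-Ig (20 nM final) was added for a further 15 min in dPBS with 0.1% BSA and 0.05% Tween-20. Binding was detected by HTRF using Eu-cryptate anti-Ig (1 nM) and APC anti-His (20 nM).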

T1 sequence (Q9NZQ7 with tags, fused parts or gaps): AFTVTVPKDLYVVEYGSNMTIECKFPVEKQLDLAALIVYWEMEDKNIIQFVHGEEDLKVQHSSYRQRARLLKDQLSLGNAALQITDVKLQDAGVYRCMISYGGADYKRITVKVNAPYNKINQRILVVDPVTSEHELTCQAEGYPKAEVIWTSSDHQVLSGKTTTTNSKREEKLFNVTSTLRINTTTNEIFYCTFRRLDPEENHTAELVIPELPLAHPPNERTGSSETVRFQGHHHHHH

| pIC50 (IC50 range class) | pIC50 (numeric IC50) | SMILES |
| --- | --- | --- |
| 7.70 to 10.40 |  | Cc1c(COc2cc(OCc3cncc(C#N)c3)c(CNC(CCO)C(=O)O)cc2Cl)cccc1-c1cccc(COc2cc(OCc3cncc(C#N)c3)c(CN(CC3CCCO3)C(CCO)C(=O)O)cc2Cl)c1C (centres unmarked) [Example 41030] |
| 7.05 to 7.70 |  | Cc1c(COc2cc(OCc3cncc(C#N)c3)c(CN[C@H](C(=O)O)[C@@H](C)OCc3ccccc3)cc2Cl)cccc1-c1cccc(COc2cc(OCc3cncc(C#N)c3)c(CN[C@H](C(=O)O)[C@@H](C)OCc3ccccc3)cc2Cl)c1C [Example 41050] |
| 7.70 to 10.40 |  | Cc1c(COc2cc(OCc3cncc(C#N)c3)c(CN[C@H](CCO)C(=O)O)cc2Cl)cccc1-c1cccc(COc2cc(OCc3cncc(C#N)c3)c(CN[C@H](CCO)C(=O)O)cc2Cl)c1C [Example 41090] |
| 7.70 to 10.40 |  | Cc1c(COc2cc(OCc3cncc(C#N)c3)c(CN[C@H](C(=O)O)[C@@H](C)O)cc2Cl)cccc1-c1cccc(COc2cc(OCc3cncc(C#N)c3)c(CN[C@H](C(=O)O)[C@@H](C)O)cc2Cl)c1C [Example 41100] |
| 7.70 to 10.40 |  | Cc1c(COc2cc(OCc3cncc(C#N)c3)c(CN[C@H](C(=O)O)[C@H](C)O)cc2Cl)cccc1-c1cccc(COc2cc(OCc3cncc(C#N)c3)c(CN[C@H](C(=O)O)[C@H](C)O)cc2Cl)c1C [Example 41110] |
| 7.70 to 10.40 |  | Cc1c(COc2cc(OCc3cncc(C#N)c3)c(CN[C@@H](C(=O)O)[C@H](C)O)cc2Cl)cccc1-c1cccc(COc2cc(OCc3cncc(C#N)c3)c(CN[C@@H](C(=O)O)[C@@H](C)O)cc2Cl)c1C [Example 41130] |
| 7.70 to 10.40 |  | C[C@@](CO)(NCc1cc(Cl)c(OCc2cccc(-c3cccc(COc4cc(OCc5cncc(C#N)c5)c(CN[C@@](C)(CO)C(=O)O)cc4Cl)c3Cl)c2Cl)cc1O)C(=O)O [Example 41170] |
| 7.70 to 10.40 |  | N#Cc1cncc(COc2cc(OCc3cccc(-c4cccc(COc5cc(O)c(CNC(CCO)C(=O)O)cc5Cl)c4Cl)c3Cl)c(Cl)cc2CNC(CCO)C(=O)O)c1 (centres unmarked) [Example 41180] |
| 7.70 to 10.40 |  | C[C@](CO)(NCc1cc(Cl)c(OCc2cccc(-c3cccc(COc4cc(OCc5cncc(C#N)c5)c(CN[C@](C)(CO)C(=O)O)cc4Cl)c3Cl)c2Cl)cc1OCc1cncc(C#N)c1)C(=O)O [Example 41190] |
| 7.70 to 10.40 |  | CC(CO)(NCc1cc(Cl)c(OCc2cccc(-c3cccc(COc4cc(OCc5cncc(C#N)c5)c(CNC(C)(CO)C(=O)O)cc4Cl)c3Cl)c2Cl)cc1OCc1cncc(C#N)c1)C(=O)O (centres unmarked) [Example 41200] |
| 7.70 to 10.40 |  | Cc1c(COc2cc(OCc3cncc(C#N)c3)c(CN[C@](C)(CO)C(=O)O)cc2Cl)cccc1-c1cccc(COc2cc(OCc3cncc(C#N)c3)c(CN[C@](C)(CO)C(=O)O)cc2Cl)c1C [Example 41210] |
| 7.05 to 7.70 |  | COc1ccc(CNCc2cc(Cl)c(OCc3cccc(-c4cccc(COc5cc(OCc6cncc(C#N)c6)c(CNCc6ccc(OC)cc6OC)cc5Cl)c4C)c3C)cc2OCc2cncc(C#N)c2)c(OC)c1 [Example 41230] |
| 7.05 to 7.70 |  | N#Cc1cncc(COc2cc(OCc3cccc(-c4cccc(COc5cc(OCc6cncc(C#N)c6)c(CN6CCCC[C@H]6C(=O)O)cc5Cl)c4)c3)c(Cl)cc2CO)c1 [Example 50020] |
|  | 6.94 | N#Cc1cncc(COc2cc(OCc3cccc(-c4cccc(COc5cc(OCc6cncc(C#N)c6)c(CN6CCC(O)(C(=O)O)CC6)cc5Cl)c4)c3)c(Cl)cc2CO)c1 [Example 50040] |
| 7.70 to 10.40 |  | Cc1c(COc2cc(OCc3cncc(C#N)c3)c(CO)cc2Cl)cccc1-c1cccc(COc2cc(OCc3cncc(C#N)c3)c(CNC(CO)(Cc3ccccc3)C(=O)O)cc2Cl)c1C (centres unmarked) [Example 50060] |
| 7.70 to 10.40 |  | Cc1c(COc2cc(OCc3cncc(C#N)c3)c(CO)cc2Cl)cccc1-c1cccc(COc2cc(OCc3cncc(C#N)c3)c(CNCC(O)CC(=O)O)cc2Cl)c1C (centres unmarked) [Example 50070] |
| 7.70 to 10.40 |  | Cc1c(COc2cc(OCc3cncc(C#N)c3)c(CO)cc2Cl)cccc1-c1cccc(COc2cc(OCc3cncc(C#N)c3)c(CN3CCOC[C@@H]3C(=O)O)cc2Cl)c1C [Example 50100] |
| 7.70 to 10.40 |  | Cc1c(COc2cc(OCc3cncc(C#N)c3)c(CO)cc2Cl)cccc1-c1cccc(COc2cc(OCc3cncc(C#N)c3)c(CN3CCCC(C(=O)O)C3)cc2Cl)c1C (centres unmarked) [Example 50110] |
| 7.70 to 10.40 |  | Cc1c(COc2cc(OCc3cncc(C#N)c3)c(CO)cc2Cl)cccc1-c1cccc(COc2cc(OCc3cncc(C#N)c3)c(CN3CCC[C@H](C(=O)O)C3)cc2Cl)c1C [Example 50120] |
| 7.70 to 10.40 |  | Cc1c(COc2cc(OCc3cncc(C#N)c3)c(CO)cc2Cl)cccc1-c1cccc(COc2cc(OCc3cncc(C#N)c3)c(CN[C@@H](CCO)C(=O)O)cc2Cl)c1C [Example 50150] |
| 7.70 to 10.40 |  | Cc1c(COc2cc(OCc3cncc(C#N)c3)c(CO)cc2Cl)cccc1-c1cccc(COc2cc(OCc3cncc(C#N)c3)c(CN(CC(C)C)C(CCO)C(=O)O)cc2Cl)c1C (centres unmarked) [Example 50170] |
| 7.70 to 10.40 |  | Cc1c(COc2cc(OCc3cncc(C#N)c3)c(CO)cc2Cl)cccc1-c1cccc(COc2cc(OCc3cncc(C#N)c3)c(CN[C@@H](C(=O)O)[C@H](C)O)cc2Cl)c1C [Example 50180] |

| pIC50 (IC50 range class) | pIC50 (numeric IC50) | SMILES |
| --- | --- | --- |
| 7.70 to 10.40 |  | Cc1c(COc2cc(OCc3cncc(C#N)c3)c(CO)cc2Cl)cccc1-c1cccc(COc2cc(OCc3cncc(C#N)c3)c(CN[C@@H](C(=O)O)[C@@H](C)O)cc2Cl)c1C [Example 50190] |
| 7.70 to 10.40 |  | Cc1c(COc2cc(OCc3cncc(C#N)c3)c(CO)cc2Cl)cccc1-c1cccc(COc2cc(OCc3cncc(C#N)c3)c(CNC(C(=O)O)C(C)O)cc2Cl)c1C (centres unmarked) [Example 50200] |
| 7.70 to 10.40 |  | Cc1c(COc2cc(OCc3cncc(C#N)c3)c(CO)cc2Cl)cccc1-c1cccc(COc2cc(OCc3cncc(C#N)c3)c(CN[C@H](CCO)C(=O)O)cc2Cl)c1C [Example 50210] |
| 7.70 to 10.40 |  | Cc1c(COc2cc(OCc3cncc(C#N)c3)c(CO)cc2Cl)cccc1-c1cccc(COc2cc(OCc3cncc(C#N)c3)c(CNC(C(=O)O)C(=O)O)cc2Cl)c1C [Example 50220] |
| 7.70 to 10.40 |  | Cc1c(COc2cc(OCc3cncc(C#N)c3)c(CO)cc2Cl)cccc1-c1cccc(COc2cc(OCc3cncc(C#N)c3)c(CN[C@H](C(=O)O)[C@H](C)O)cc2Cl)c1C [Example 50230] |
| 7.70 to 10.40 |  | Cc1c(COc2cc(OCc3cncc(C#N)c3)c(CO)cc2Cl)cccc1-c1cccc(COc2cc(OCc3cncc(C#N)c3)c(CN[C@H](CO)C(=O)O)cc2Cl)c1C [Example 50240] |
| 7.70 to 10.40 |  | Cc1c(COc2cc(OCc3cncc(C#N)c3)c(CO)cc2Cl)cccc1-c1cccc(COc2cc(OCc3cncc(C#N)c3)c(CN[C@@H](C(=O)O)[C@H](C)O)cc2Cl)c1C [Example 50250] |
|  | 7.64 | Cc1c(COc2cc(OCc3cncc(C#N)c3)c(CO)cc2Cl)cccc1-c1cccc(COc2cc(OCc3cncc(C#N)c3)c(CNC(C(=O)O)C(=O)O)cc2Cl)c1C [Example 50270] |
| 7.70 to 10.40 |  | Cc1c(COc2cc(OCc3cncc(C#N)c3)c(CO)cc2Cl)cccc1-c1cccc(COc2cc(OCc3cncc(C#N)c3)c(CNCC(O)C(=O)O)cc2Cl)c1C (centres unmarked) [Example 50300] |
| 7.05 to 7.70 |  | Cc1c(COc2cc(OCc3cncc(C#N)c3)c(CO)cc2Cl)cccc1-c1cccc(COc2cc(OCc3cncc(C#N)c3)c(CN[C@@H](CO)CC(=O)O)cc2Cl)c1C [Example 50310] |
| 7.70 to 10.40 |  | Cc1c(COc2cc(OCc3cncc(C#N)c3)c(CO)cc2Cl)cccc1-c1cccc(COc2cc(OCc3cncc(C#N)c3)c(CN[C@H](CO)CC(=O)O)cc2Cl)c1C [Example 50330] |
| 7.70 to 10.40 |  | Cc1c(COc2cc(OCc3cncc(C#N)c3)c(CO)cc2Cl)cccc1-c1cccc(COc2cc(OCc3cncc(C#N)c3)c(CN[C@H](C(=O)O)[C@@H](C)[C@H](C)O)cc2Cl)c1C [Example 50340] |
| 7.70 to 10.40 |  | Cc1c(COc2cc(OCc3cncc(C#N)c3)c(CO)cc2Cl)cccc1-c1cccc(COc2cc(OCc3cncc(C#N)c3)c(CN[C@@H](CCO)C(=O)O)cc2Cl)c1C [Example 50360] |
| 7.70 to 10.40 |  | CC(CO)(NCc1cc(Cl)c(OCc2cccc(-c3cccc(COc4cc(OCc5cncc(C#N)c5)c(CO)cc4Cl)c3Cl)c2Cl)cc1OCc1cncc(C#N)c1)C(=O)O (centres unmarked) [Example 50380] |
| 7.70 to 10.40 |  | C[C@](CO)(NCc1cc(Cl)c(OCc2cccc(-c3cccc(COc4cc(OCc5cncc(C#N)c5)c(CO)cc4Cl)c3Cl)c2Cl)cc1OCc1cncc(C#N)c1)C(=O)O [Example 50400] |
| 7.70 to 10.40 |  | CC(=O)c1cc(Cl)c(OCc2cccc(-c3cccc(COc4cc(OCc5cncc(C#N)c5)c(CN[C@](C)(CO)C(=O)O)cc4Cl)c3C)c2C)cc1OCc1cncc(C#N)c1 [Example 60010] |
| 7.70 to 10.40 |  | CC(=O)c1cc(Cl)c(OCc2cccc(-c3cccc(COc4cc(OCc5cncc(C#N)c5)c(CN[C@H](C(=O)O)[C@@H](C)O)cc4Cl)c3C)c2C)cc1OCc1cncc(C#N)c1 [Example 60020] |
|  | 8.22 | CC(=O)c1cc(Cl)c(OCc2cccc(-c3cccc(COc4cc(OCc5cncc(C#N)c5)c(CNC(C)(CO)C(=O)O)cc4Cl)c3C)c2C)cc1OCc1cncc(C#N)c1 (centres unmarked) [Example 60030] |
| 7.70 to 10.40 |  | CC(=O)c1cc(Cl)c(OCc2cccc(-c3cccc(COc4cc(OCc5cncc(C#N)c5)c(CN[C@](C)(CO)C(=O)O)cc4Cl)c3Cl)c2Cl)cc1OCc1cncc(C#N)c1 [Example 60040] |
| 7.70 to 10.40 |  | CC(=O)c1cc(Cl)c(OCc2cccc(-c3cccc(COc4cc(OCc5cncc(C#N)c5)c(CN[C@H](C(=O)O)[C@@H](C)[C@H](C)O)cc4Cl)c3C)c2C)cc1OCc1cncc(C#N)c1 [Example 60050] |
| 7.70 to 10.40 |  | CC(=O)c1cc(Cl)c(OCc2cccc(-c3cccc(COc4cc(OCc5cncc(C#N)c5)c(CNC(C)(CO)C(=O)O)cc4Cl)c3Cl)c2Cl)cc1OCc1cncc(C#N)c1 (centres unmarked) [Example 60060] |
| 7.70 to 10.40 |  | CC(=O)c1cc(Cl)c(OCc2cccc(-c3cccc(COc4cc(OCc5cncc(C#N)c5)c(CN[C@@](C)(CO)C(=O)O)cc4Cl)c3C)c2C)cc1OCc1cncc(C#N)c1 [Example 60070] |
